Experimental data published in patent publication US9044397B2, “Medical devices with galvanic particulates” (Ethicon, Inc., priority 2009, dated 2015).

Columns and labels:
Type in all cases: cell-based
C. albicans [1] = assay: Zone of inhibition on TSA agar versus copper acetate and zinc acetate; conditions: about 6 log CFU, 37° C. 24 hr
Protocol: (§1) Zone of inhibition testing was performed on agar discs containing copper-zinc galvanic particulates from Example 1(a) at 0.5%, Zn acetate at 0.5%, and Cu acetate at 0.1%. The discs were placed on TSA agar surface, inoculated with about 6 log CFU of MRSA or C. albicans, and incubated at 37° C. for 24 hr.

MRSA [2] = assay: as above; conditions: about 6 log CFU, 37° C. 24 hr
Protocol: as §1

C. albicans [3] = assay: Sustained efficacy, zone of inhibition day 1 and re-plated day 2; conditions: 1% in agar disc
Protocol: (§2) Agars discs containing either galvanic particulates as described in Example 1(a) or zinc acetate at 1% were placed on TSA agar surface inoculated with about 6 log CFU of MRSA or C. albicans and incubated at 37° C. for 24 hr (day-1).

MRSA [4] = assay: as above; conditions: 1% in agar disc
Protocol: as §2

[5] = same disc moved to newly inoculated plate, day-2

Compound | zone of inhibition, C. albicans (C. albicans [1]; 0.5% in agar disc) | zone of inhibition, MRSA (MRSA [2]; 0.5% in agar disc) | zone of inhibition, C. albicans, day 1 (C. albicans [3]; day-1, 24 hr at 37° C.) | zone of inhibition, C. albicans, day 2 (C. albicans [3]; [5]) | zone of inhibition, MRSA, day 1 (MRSA [4]; day-1, 24 hr at 37° C.) | zone of inhibition, MRSA, day 2 (MRSA [4]; [5]) | zone of inhibition, C. albicans (C. albicans [1]; 0.1% in agar disc) | zone of inhibition, MRSA (MRSA [2]; 0.1% in agar disc)
CC(=O)[O-].CC(=O)[O-].[Zn+2] [Zinc Acetate, zinc acetate] | smaller zone of inhibition, approximately one half the radius | smaller zone of inhibition, approximately one half the radius | produce a zone of inhibition | did not show any inhibition | produce a zone of inhibition | did not show any inhibition |  | 
copper acetate |  |  |  |  |  |  | did not show any visible zone of inhibition | did not show any visible zone of inhibition
